Laboratory results: paper PMC9962329, “Photocaging of Pyridinylimidazole-Based Covalent JNK3 Inhibitors Affords Spatiotemporal Control of the Binding Affinity in Live Cells” (Pharmaceuticals, 2023)

Key:
JNK3 [1] = target: T1, JNK3 (Homo sapiens, UniProt P53779); experiment: NanoBRET TE intracellular JNK3 assay; format: cell-based; details: for IC50 / decreased binding affinity compared to lead structure 1: NanoBRET TE intracellular JNK3 assay; for IC50: tracer K-10 0.25 µM, means of at least two independent experiments, read-out: JNK3 IC50 ± SEM; for decreased binding affinity compared to lead structure 1: relative to 1 (IC50 = 243 nM)
T1 sequence (P53779 whole entry): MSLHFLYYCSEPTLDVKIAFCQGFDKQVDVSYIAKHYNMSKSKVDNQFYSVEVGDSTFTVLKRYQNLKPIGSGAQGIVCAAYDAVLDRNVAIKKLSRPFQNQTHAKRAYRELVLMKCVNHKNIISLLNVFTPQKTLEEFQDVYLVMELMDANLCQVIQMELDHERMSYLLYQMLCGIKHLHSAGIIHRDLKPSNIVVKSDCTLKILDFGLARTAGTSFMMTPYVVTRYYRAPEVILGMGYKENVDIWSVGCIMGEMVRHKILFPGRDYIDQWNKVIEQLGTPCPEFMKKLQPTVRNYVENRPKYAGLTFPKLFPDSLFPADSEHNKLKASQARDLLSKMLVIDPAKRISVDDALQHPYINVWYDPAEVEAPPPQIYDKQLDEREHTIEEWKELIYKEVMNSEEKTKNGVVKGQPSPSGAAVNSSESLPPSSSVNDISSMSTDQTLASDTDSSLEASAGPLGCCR
Protocol: The NanoBRET™ TE intracellular JNK3 assay was performed as previously described by Andreev et al., with minor modifications.
Cells were treated with trypsin and centrifuged (210× g, 5 min) one day prior to the experiment. Afterwards, cells were resuspended in Leibovitz’ L-15 medium, supplemented with 5% FCS and 10 mM HEPES, and the suspension was adjusted to a density of 300.000 cells per mL. Meanwhile the transfection reagent was prepared. For a 96-well plate, transfection carrier DNA (4 µg) (Promega, Fitchburg, WI, USA) and JNK3-NanoLuc® Fusion vector (0.45 µg) (Promega) were diluted in Leibovitz’ L-15 medium (450 µL) and, finally, X-tremeGENE HP (13.5 µL) (Roche Diagnostics, Mannheim, Germany) was added. The mixture was incubated for 20 min at room temperature. Subsequently, the lipid–DNA complex was added to 9 mL of the cell suspension. A total of 80 µL of this cell suspension were added to each well of a white 96-well plate (Brand, Wertheim, Germany), which was incubated for 24 h at 37 °C (no additional CO2).
The fluorescent tracer K-10 (Promega, Mannheim, Germany) was diluted in DMSO to a concentration of 25 µM (100-fold more concentrated than the final assay concentration). This was further diluted 10-fold using the tracer dilution buffer (Promega, Mannheim, Germany), yielding a dilution which was 10-fold more concentrated than the final assay concentration. Next, 10 µL of the final fluorescent tracer dilution were added to the cells (the final concentration of K-10 in the assay was 0.25 µM).

JNK3 [2] = target: T1, JNK3; experiment: radiometric JNK3 activity assay at Eurofins Discovery; format: biochemical; details: for IC50: radiometric JNK3 activity assay; for decreased biological activity compared to parent compound 1: radiometric assay, relative to 1 (IC50 = 6 nM)
JNK3 [3] = target: T1, JNK3; experiment: compound washout (kinetic analysis) in the NanoBRET assay; format: cell-based; details: 2 h incubation at 10-fold IC50, four washes, tracer 1 µM
Protocol: To study the putative covalent binding of inhibitors 8 and 13, we next applied the compound washout method in the NanoBRET^TM assay. Briefly, we established a protocol where the compound dissociation of 8 and 13 was determined indirectly by their ability to inhibit binding of the ATP-competitive tracer. The covalent inhibitor 1 was used as a positive control, and the propionamide 10 was used as a negative control.
For kinetic analyses experiments, plates were coated with crosslinked gelatin to improve cell adhesion. The transfection of the cells was carried out as described above, but 90 µL of cell suspension were seeded. The next day, cells were first incubated with the test compound in a 10-fold concentration of the respective IC50 value. After 2 h, the unbound compound was removed by washing the cells four times with 100 µL of Leibovitz’ L-15. Furimazine was then added according to the manufacturer`s protocol. Afterwards, a near-saturating concentration of tracer (1 µM) was added, and the measurement was started immediately.

JNK3 [4] = target: T1, JNK3; parameters: method as in PMID 34081840; details: light pulses at 390 nm, trans-cis switch; cited from earlier work
JNK3 [5] = target: T1, JNK3; parameters: method as in PMID 34081840; details: cellular NanoBRET assay, light pulses at 400 nm; cited from earlier work
JNK3(C154A)-NLuc = target: T2, JNK3(C154A)-NLuc (Homo sapiens, UniProt P53779, C154A); experiment: NanoBRET TE intracellular assay with JNK3(C154A)-NLuc mutant; format: cell-based; details: single point mutation C154A
T2 construct: mutant made in house by PCR
T2 sequence (P53779 whole entry C154A): as the sequence (P53779 whole entry) above, with C154A counted along it
Protocol: To generate the cDNA of the JNK3(C154A)-NLuc mutant, JNK3-NanoLuc® Fusion vector (Promega) was used as a template, and two partially overlapping primers (5′-[…] and 5′-[…]) (synthesized by Eurofins, Ebersberg) annealed to the template. Phusion HF DNA Polymerase was obtained from New England BioLabs (Frankfurt, Germany). The polymerase chain reaction (PCR) was carried out as described in the Phusion HF polymerase protocol. The PCR product was treated with Dpn I endonuclease and transformed into competent E. coli Top 10 cells. Point mutation was confirmed by sequencing (Eurofins Discovery).

Row | SMILES | IC50 (JNK3 [1]) | decrease in JNK3 binding by introduction of the photocleavable protecting group (JNK3 [1]; NanoBRET assay, without irradiation, relative to parent 13) | IC50 (JNK3 [2]) | compound dissociation after washout (displacement by tracer) (JNK3 [3]) | increase in biochemical activity by light (factor) (JNK3 [4]) | increase in inhibitory potency by light (factor) (JNK3 [5]) | decreased biological activity compared to parent compound 1 (JNK3 [2]) | decreased binding affinity compared to lead structure 1 (JNK3 [1]) | change in binding affinity for JNK3(C154A)-NLuc versus wildtype JNK3-NLuc (JNK3(C154A)-NLuc)
1 | C=CC(=O)Nc1cccc(NC(=O)c2ccc(N(Cc3cc(OC)c(OC)cc3[N+](=O)[O-])c3cc(-c4c(-c5ccc(F)cc5)nc(SC)n4C)ccn3)cc2)c1 [compound 17, N-(3-Acrylamidophenyl)-4-((4,5-dimethoxy-2-nitrobenzyl)(4-(4-(4-fluorophenyl)-1-methyl-2-(methylthio)-1H-imidazol-5-yl)pyridin-2-yl)amino)benzamide hydrotrifluoroacetate] | 9490 ± 538 nM | nearly one order of magnitude |  |  |  |  |  |  | 
2 | CCC(=O)Nc1cccc(C(=O)N(C)c2ccc(Nc3cc(-c4c(-c5ccc(F)cc5)nc(SC)n4C)ccn3)cc2)c1 [compound 10, N-(4-((4-(4-(4-Fluorophenyl)-1-methyl-2-(methylthio)-1H-imidazol-5-yl)pyridin-2-yl)amino)phenyl)-N-methyl-3-propionamidobenzamide] | 5020 ± 97 nM |  | 24 nM | quickly displaced by the tracer |  |  |  |  | 
3 | C=CC(=O)Nc1ccc2c(c1)CCc1cc(Nc3cc(-c4c(-c5ccc(F)cc5)nc(SC)n4C)ccn3)ccc1/N=N\2 [compound 2] |  |  |  |  | 30 | factor of only two |  |  | 
4 | CCC(=O)Nc1cccc(NC(=O)c2ccc(Nc3cc(-c4c(-c5ccc(F)cc5)nc(SC)n4C)ccn3)cc2)c1 [compound 14, 4-((4-(4-(4-Fluorophenyl)-1-methyl-2-(methylthio)-1H-imidazol-5-yl)pyridin-2-yl)amino)-N-(3-propionamidophenyl)benzamide] | > 10000 nM |  | 22 nM |  |  |  |  |  | 
5 | C=CC(=O)Nc1cccc(C(=O)Nc2ccc(Nc3cc(-c4c(-c5ccc(F)cc5)nc(SC)n4C)ccn3)cc2)c1 [compound 1, acrylamido-N-(4-((4-(4-(4-fluorophenyl)-1-methyl-2-(methylthio)-1H-imidazol-5-yl)pyridin-2-yl)amino)phenyl)benzamide, reference compound] | 243 ± 75 nM |  | 6 nM | remained persistently bound |  |  |  |  | 
6 | C=CC(=O)Nc1cccc(C(=O)N(C)c2ccc(Nc3cc(-c4c(-c5ccc(F)cc5)nc(SC)n4C)ccn3)cc2)c1 [compound 8, 3-Acrylamido-N-(4-((4-(4-(4-fluorophenyl)-1-methyl-2-(methylthio)-1H-imidazol-5-yl)pyridin-2-yl)amino)phenyl)-N-methylbenzamide hydrotrifluoroacetate] | 1360 ± 342 nM |  | 14 nM | remained persistently bound |  |  | two-fold decreased | 4 fold | dramatic decrease in the binding affinity
7 | C=CC(=O)Nc1cccc(NC(=O)c2ccc(Nc3cc(-c4c(-c5ccc(F)cc5)nc(SC)n4C)ccn3)cc2)c1 [compound 13, N-(3-Acrylamidophenyl)-4-((4-(4-(4-fluorophenyl)-1-methyl-2-(methylthio)-1H-imidazol-5-yl)pyridin-2-yl)amino)benzamide hydrotrifluoroacetate] | 1060 ± 252 nM |  | 13 nM | remained persistently bound |  |  | two-fold decreased | 5.5 fold | dramatic decrease in the binding affinity
